Source: patent publication US20070078262A1, “Thiomorpholino steroid compounds, the use thereof for the preparation of meiosis-regulating medicaments and method for the preparation thereof” (SCHERING AKTIENGESELLSCHAFT, priority 2003, published 2007)
In brackets after ≈: the same amount, converted by molar mass.

What was measured:
mouse oocytes = assay: In vitro fertilization (IVF) after in vitro maturation of oocytes; format: cell-based, mice (C57BL/6J×DBA/2J F1)
Protocol: Changes in the subsequent IVF are therefore probably due to effects of the test compounds on cytoplasmic maturation.
Immature female mice (C57BL/6J×DBA/2J F1) in the age of 21-24 days were used as oocyte donors. Animals were given an i.p. injection of 10 IU pregnant mare serum gonadotropin (PMSG) to induce follicular growth. Animals were killed by cervical dislocation 48 hours later and the ovaries were dissected out. As sperm donors eight week old male mice (C57BL/6J×DBA/2J F1) were used.
Oocytes were isolated from the ovaries by manual rupture of the follicles using a pair of 27-gauge needles. Spherical naked oocytes (NkO) and CEOs displaying an intact GV were selected and placed in α-minimum essential medium (α-MEM without ribonucleosides, Gibco BRL, Gaithersburg; Cat. No. 22561) supplemented with 8 mg/ml human serum albumin (HSA), 0.23 mM pyruvate, 2 mM glutamine, 100 IU/ml penicillin and 100 μg/ml streptomycin.
The oocytes were rinsed three times in culture medium without oil overlay in 4-well multidishes containing 0.4 ml of the respective oocyte culture medium.
The oocyte culture medium was supplemented with 6.4% Fetal Bovine Serum (FBS). Solutions of novel compound IA and of the two compounds in comparison as mentioned were prepared from a stock solution containing 1 mg/ml of compound dissolved in absolute ethanol. The control group was cultured with a corresponding amount of ethanol.
After a culture time of 18-19 hours oocytes were further processed for in vitro fertilization. […] Oocytes were briefly washed without any test compound and subsequently transferred to the insemination dishes prepared in advance, which contained approximately 600.000 capacitated sperm cells per 500 μl IVF medium (obtained from the epididymides of male mice). The dishes were then incubated under defined gas conditions (5% CO2 in air) at 37° C. in a modified α-MEM IVF medium supplemented with 8 mg/ml HSA, 0.23 mM pyruvate, 100 IU penicillin/ml and 100 μg streptomycin/ml as described above for oocyte maturation.
Examination of the oocytes was carried out 22-24 hours after insemination in order to check fertilization and to record the number of pronucleus (PN) and 2-cell stage embryos. The fertilization rate was determined as the number of oocytes that had reached the PN or 2-cell embryo stage, relative to the total number inseminated.

[1] = tested on: in vitro fertilized ova (2-cell embryos); assay: Retransfer study / fertility trial (in vitro fertilized 2-cell embryos transferred into foster mothers); format: in vivo, mice; details: for No. of Implantation Spots: Odds / No. of Viable Fetuses: Odds: successes divided by failures; for No. of Implantation Spots: Failures: transferred ova minus implantation spots; for No. of Viable Fetuses: Failures: transferred ova minus viable fetuses; for Odds Ratio for comparison to FF-MAS, No. of Implantation Spots / Odds Ratio for comparison to FF-MAS, No. of Viable Fetuses: versus FF-MAS 10 μM
Protocol: In vitro fertilization was performed as described above for the IVF experiment.
One day before the retransfer female recipient mice (foster mothers) in pro-estrus cycle state were mated with vasectomized males in order to trigger pseudogestation. One day later a vaginal check was performed. Animals with a positive, sperm-free vaginal plug (successful mating) entered the study. This day was designated day 0 of gestation (=day 0 after the sterile copulation, day 0 p.c.). […] 2-cell embryos were transferred into the right tube of the foster mothers on day 0 after the sterile copulation under anesthesia. The contra-lateral tube remained unused (check for pseudogestation). The foster mothers were sacrified on day 19 of gestation. The fetuses were removed and examined. The ovaries and uteri were removed immediately to record the number of implantation sites, viable and dead fetuses and resorptions. Apparently non-pregnant uteri were placed in a 10% aqueous solution of ammonium sulfide for about 10 min to stain possible implantation sites in the endometrium. The viable fetuses were individually weighed and their sex determined by inspection of their gonads.
In a fertility trial 269 mice were randomized into 6 groups and implanted with 7-10 in vitro fertilized ova. The in vitro fertilization took place in the presence of vehicle (group 1) or of a substance (groups 2 to 6).
The fertility raising effect of the substances in comparison to the vehicle control was of main interest. Moreover, an improvement compared to the substance FF-MAS was also investigated.
Variables of primary interest are the number of implantation spots and the number of viable fetuses.
The data for implantation spots as well as for viable fetuses have to be considered to have binary character, i.e. it can be expressed in rates or in a number of successes and failures with respect to the number of transferred ova. Therefore, methods as outlined by D. Collett: “Modelling Binary Data”, 2nd edition, Chapman & Hall/CRC, Boca Raton, constitute appropriate approaches to the data analysis.
The odds ratio of one group as compared to the other is defined as: odds ratio (group 1, group 2)=or1,2=odds (group 1)/odds (group 2)
where the odds of a group can be estimated by the number of successes divided by the number of failures in that group.
To reach statements about the significance of any findings, 95% confidence-intervals for the odds ratios are computed as: [ exp(log(or1,2)[…]1.96·se(log(or1,2))); exp(log(or1,2)+1.96·se(log(or1,2)))]
wherein se(log(or1,2)) is the standard error of the log odds ratio (see D. Collett (2003) for the corresponding formula).
As a basis for the computation of odds ratios, the number of successes (i.e., the number of implantation spots of number of viable fetuses) and failures (i.e., the number of transferred ova minus the number of implantation spots or number of viable fetuses) are computed for all groups.

physchem = details: water

C[C@H](CN1CCSCC1)[C@H]1CC=C2C3=C(CC[C@@]21C)[C@@]1(C)CC[C@H](O)C(C)(C)[C@@H]1CC3 [Compound IA, (20S)-20-[(thiomorpholin-4-yl)methyl]-4,4-dimethyl-5α-pregna-8,14-dien-3β-ol]
effect on 2-cell and blastocyst rate (mouse oocytes; already at 0.1 μM, tends to be even higher at 1 μM): beneficial effect | fertilization rates of mouse oocytes compared to vehicle control (FIG. 3) (mouse oocytes; in vitro maturation without hypoxanthine, then IVF, n=18): higher fertilization rates | No. of Implantation Spots: Success ([1]; 1 μM): 120 | No. of Viable Fetuses: Success ([1]; 1 μM): 51 | Odds Ratio for comparison to vehicle control, No. of Implantation Spots ([1]; 1 μM): 1.51 | Odds Ratio for comparison to vehicle control, No. of Viable Fetuses ([1]; 1 μM): 1.70 | increase of the odds of a successful implantation versus vehicle control ([1]; 1 μM): 51% | No. of Implantation Spots: Odds ([1]; 1 μM): 0.38 | No. of Viable Fetuses: Odds ([1]; 1 μM): 0.13 | No. of Implantation Spots: Failures ([1]; 1 μM): 317 | No. of Viable Fetuses: Failures ([1]; 1 μM): 386 | Odds Ratio for comparison to FF-MAS, No. of Implantation Spots ([1]; 1 μM): 1.27 | Odds Ratio for comparison to FF-MAS, No. of Viable Fetuses ([1]; 1 μM): 1.15 | No. of Implantation Spots: Success ([1]; 10 μM): 123 | No. of Viable Fetuses: Success ([1]; 10 μM): 40 | Odds Ratio for comparison to vehicle control, No. of Implantation Spots ([1]; 10 μM): 1.55 | Odds Ratio for comparison to vehicle control, No. of Viable Fetuses ([1]; 10 μM): 1.29 | better chance (odds) of a successful implantation versus vehicle control ([1]; 10 μM): 55% | No. of Implantation Spots: Odds ([1]; 10 μM): 0.39 | No. of Viable Fetuses: Odds ([1]; 10 μM): 0.10 | No. of Implantation Spots: Failures ([1]; 10 μM): 317 | No. of Viable Fetuses: Failures ([1]; 10 μM): 400 | Odds Ratio for comparison to FF-MAS, No. of Implantation Spots ([1]; 10 μM): 1.30 | Odds Ratio for comparison to FF-MAS, No. of Viable Fetuses ([1]; 10 μM): 0.87 | shows significant improvement of odds versus vehicle control, number of implantation spots ([1]; 95% confidence interval of odds ratio, all doses tested): significant improvement of odds | implantation rate per transferred 2-cell embryos (FIG. 4) ([1]; FF-MAS 10 μM, compound IA 1 μM and 10 μM): higher numbers | increase of the odds for a success in terms of viable fetuses versus vehicle control ([1]; lower doses (1 μM)): 70% | solubility (physchem): ~4 µg/mL (≈ 9.01 µM)
